This passage reports inhibition in vivo and inhibition results from ChEMBL document CHEMBL2417472, “Synthesis and biological evaluation of novel benzyl-substituted (S)-phenylalanine derivatives as potent dipeptidyl peptidase 4 inhibitors” (Bioorg Med Chem, 2013).

The species entered for test [1] is Rattus norvegicus. In words: animal or person. Particulars: Sprague-Dawley, po, read-out: INH.
Test [2] is filed under the species Rattus norvegicus. In words: animal or person. Particulars: Sprague-Dawley, po, read-out: INH. This is another data set of the same source.
Test [3] deals with Rattus norvegicus. Nature of the test: Antidiabetic activity in po dosed Sprague-Dawley rat assessed as inhibition of glucose excursion administered 30 mins prior glucose challenge measured over 30 to 120 mins post challenge by OGTT. The class given is functional, organism-based.
Test [4] is filed under the species Rattus norvegicus. In words: animal or person. Particulars: Sprague-Dawley, po, read-out: INH. This is another data set of the same source.

Regarding `N#C[C@@H]1CCCN1C(=O)[C@@H](N)Cc1ccc(-c2cn(Cc3ccc(F)cc3)nn2)cc1`, the inhibition in vivo at 10 mg/kg in test [1] worked out at 28.8%. Besides, the inhibition in vivo at 1 mg/kg in test [2] is 20.8%. For the same molecule, in test [3], the inhibition entry was “Dose-dependent effect”. Moreover, the inhibition in vivo at 3 mg/kg in test [4] was found to be 21.7%.
